Results as given in ChEMBL document CHEMBL1201862, “PubChem BioAssay data set” (2004).
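Method: 48-hour compound exposure of cells in 96-well plates, five concentrations, linear interpolation of endpoints. Here, GI50 denotes the concentration required for 50% inhibition of growth.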 Calls of active or inactive are those of the source. Rule as the data show it: active = GI50 up to about 1.1 µM and inactive = higher.

Assays:
Test in all cases: NCI-60 cell line screen, 48 h
EKVX = tested on: EKVX
SF-268 = tested on: SF-268
MDA-MB-231 = tested on: MDA-MB-231
U-251 = tested on: U-251
HT-29 = tested on: HT-29
ACHN = tested on: ACHN
HCT-116 = tested on: HCT-116
MCF7 = tested on: MCF7
UACC-62 = tested on: UACC-62
HL-60 = tested on: HL-60
OVCAR-4 = tested on: OVCAR-4
HOP-62 = tested on: HOP-62
BT-549 = tested on: BT-549
CCRF-CEM = tested on: CCRF-CEM
PC-3 = tested on: PC-3
SW-620 = tested on: SW-620
Malme-3M = tested on: Malme-3M
NCI-H460 = tested on: NCI-H460
COLO 205 = tested on: COLO 205

Measured: GI50

O=c1c2ccccc2sc2nc(CCl)nn12
inactive: EKVX 16 µM | SF-268 20.2 µM | MDA-MB-231 8.36 µM | U-251 > 96.8 µM | HT-29 12.4 µM | ACHN 6.31 µM | HCT-116 4.75 µM | MCF7 3.65 µM | UACC-62 5.46 µM | HL-60 14.5 µM | OVCAR-4 > 100 µM | HOP-62 > 100 µM | BT-549 27 µM | CCRF-CEM > 100 µM | PC-3 3.42 µM | SW-620 12.7 µM | Malme-3M 18.5 µM | NCI-H460 5.64 µM | COLO 205 13.1 µM

COc1cccc(C2c3cc4c(cc3OC(O)C2C)OCO4)c1OC (stereo not given)
inactive: EKVX 20.1 µM | SF-268 7.36 µM | MDA-MB-231 14.2 µM | U-251 3.27 µM | HT-29 3.66 µM | ACHN 3.18 µM | HCT-116 2.35 µM | MCF7 5.28 µM | UACC-62 13.9 µM | HL-60 1.87 µM | HOP-62 17.4 µM | BT-549 10.1 µM | CCRF-CEM 2.61 µM | PC-3 4.49 µM | SW-620 3.64 µM | Malme-3M 11 µM | NCI-H460 3.71 µM | COLO 205 6.11 µM

CCOC(=O)C(NC(=O)c1cccc(Cl)c1)(N1CCN(c2cc3c(cc2F)c(=O)c(C(=O)O)cn3CC)CC1)C(F)(F)F (stereo not given)
inactive: EKVX 17.1 µM | SF-268 14.1 µM | MDA-MB-231 15.8 µM | U-251 6.7 µM | HT-29 17.6 µM | ACHN 15.7 µM | HCT-116 14 µM | MCF7 13.8 µM | UACC-62 16.4 µM | HL-60 4.47 µM | OVCAR-4 18.6 µM | HOP-62 20.5 µM | BT-549 19.4 µM | CCRF-CEM 2.61 µM | PC-3 13.4 µM | SW-620 12.9 µM | Malme-3M 18.2 µM | NCI-H460 22.3 µM | COLO 205 18.1 µM

CCn1c(SCC(=O)NNC(=S)Nc2ccc(C)cc2)nc2ccccc2c1=O
inactive: EKVX > 100 µM | SF-268 57.3 µM | MDA-MB-231 > 100 µM | U-251 > 100 µM | HT-29 > 100 µM | ACHN > 100 µM | HCT-116 > 100 µM | MCF7 > 100 µM | UACC-62 > 100 µM | HL-60 > 100 µM | OVCAR-4 78.9 µM | HOP-62 > 100 µM | BT-549 > 100 µM | CCRF-CEM > 100 µM | PC-3 > 100 µM | SW-620 > 100 µM | Malme-3M > 100 µM | NCI-H460 1.6 µM | COLO 205 > 100 µM

Cc1nc2ccc(NC(=S)Nc3ccccc3)cc2c(=O)n1-c1ccccc1
inactive: EKVX > 100 µM | SF-268 > 100 µM | MDA-MB-231 > 100 µM | U-251 57.7 µM | HT-29 > 100 µM | ACHN > 100 µM | HCT-116 > 100 µM | MCF7 > 100 µM | UACC-62 > 100 µM | HL-60 31.8 µM | OVCAR-4 > 100 µM | HOP-62 > 100 µM | BT-549 > 100 µM | PC-3 > 100 µM | SW-620 76.7 µM | Malme-3M > 100 µM | NCI-H460 24.2 µM | COLO 205 80.4 µM

O=C1CCCC2C3CC(CN12)C1CCCCN1C3.[O-][Cl+3]([O-])([O-])O (stereo not given)
inactive: EKVX > 100 µM | SF-268 > 100 µM | MDA-MB-231 > 100 µM | U-251 > 100 µM | HT-29 > 100 µM | ACHN > 100 µM | HCT-116 > 100 µM | MCF7 > 100 µM | UACC-62 > 100 µM | HL-60 > 100 µM | OVCAR-4 > 100 µM | HOP-62 > 100 µM | BT-549 > 100 µM | CCRF-CEM > 100 µM | PC-3 > 100 µM | SW-620 > 100 µM | Malme-3M > 100 µM | NCI-H460 > 100 µM | COLO 205 > 100 µM

CCC/N=C1\S/C(=C/c2ccc(OC)c(OC)c2)C(=O)N1c1ccccc1
inactive: EKVX 15.8 µM | SF-268 15.1 µM | MDA-MB-231 20.6 µM | U-251 12.6 µM | HT-29 > 100 µM | ACHN 42.8 µM | HCT-116 24 µM | MCF7 > 100 µM | UACC-62 37 µM | HL-60 59.8 µM | OVCAR-4 16 µM | HOP-62 2.84 µM | BT-549 74.8 µM | CCRF-CEM 58.7 µM | PC-3 43.8 µM | SW-620 > 100 µM | Malme-3M > 100 µM | NCI-H460 61 µM | COLO 205 > 100 µM

COCN1C(=O)[C@@H]2C[C@@H](OC/C=C/CBr)CN2C(=O)c2ccccc21
inactive: EKVX 23 µM | SF-268 25.1 µM | MDA-MB-231 17.5 µM | U-251 14.5 µM | HT-29 20.2 µM | ACHN 19.9 µM | HCT-116 13.2 µM | MCF7 5.78 µM | UACC-62 19 µM | HL-60 6.27 µM | OVCAR-4 14.6 µM | HOP-62 22.7 µM | BT-549 26.7 µM | CCRF-CEM 5.77 µM | PC-3 17.1 µM | SW-620 13.9 µM | Malme-3M 15.6 µM | COLO 205 15.8 µM

O=C(Nc1ccc(Cl)cc1)c1cc(S(=O)(=O)N2CCNNC2=O)c(S)cc1Cl
inactive: EKVX > 100 µM | SF-268 > 100 µM | MDA-MB-231 > 100 µM | U-251 > 100 µM | ACHN > 100 µM | HCT-116 > 100 µM | MCF7 > 100 µM | UACC-62 > 100 µM | HL-60 > 100 µM | OVCAR-4 > 100 µM | BT-549 35.7 µM | CCRF-CEM 97.7 µM | PC-3 > 100 µM | SW-620 > 100 µM | Malme-3M > 100 µM | NCI-H460 > 100 µM | COLO 205 > 100 µM

CCOC(=O)C(CS)NC(=O)CCCCCCCC(=O)NC(CS)C(=O)OCC (stereo not given)
inactive: EKVX > 100 µM | MDA-MB-231 > 100 µM | U-251 > 100 µM | HT-29 > 100 µM | ACHN > 100 µM | HCT-116 > 100 µM | MCF7 > 100 µM | UACC-62 > 100 µM | HL-60 25.8 µM | OVCAR-4 > 100 µM | HOP-62 > 100 µM | BT-549 > 100 µM | CCRF-CEM 21.2 µM | PC-3 > 100 µM | SW-620 > 100 µM | Malme-3M 92 µM | NCI-H460 > 100 µM | COLO 205 > 100 µM

OC1(c2ccc(Cl)cc2)c2ccccc2C2=Nc3ccccc3CN21 (stereo not given)
inactive: EKVX > 45.2 µM | SF-268 33.2 µM | MDA-MB-231 34.6 µM | U-251 23.7 µM | HT-29 14.8 µM | ACHN 8.59 µM | HCT-116 6.9 µM | MCF7 21.9 µM | UACC-62 > 86.9 µM | HL-60 18.4 µM | OVCAR-4 20.6 µM | HOP-62 12.9 µM | BT-549 > 100 µM | CCRF-CEM > 65.9 µM | PC-3 45.8 µM | SW-620 26.9 µM | Malme-3M 30.5 µM | NCI-H460 37.6 µM | COLO 205 > 69.2 µM

CC1(C)OCC(COC(=O)NCn2cc(-c3ccccc3)nn2)O1 (stereo not given)
inactive: EKVX > 100 µM | SF-268 > 100 µM | MDA-MB-231 > 100 µM | U-251 > 100 µM | HT-29 > 100 µM | ACHN > 100 µM | HCT-116 > 100 µM | MCF7 > 100 µM | HL-60 > 100 µM | OVCAR-4 > 100 µM | HOP-62 > 100 µM | BT-549 > 100 µM | CCRF-CEM > 100 µM | PC-3 > 100 µM | SW-620 > 100 µM | Malme-3M > 100 µM | NCI-H460 > 100 µM | COLO 205 > 100 µM

O=C(/C=C(\N=P(c1ccccc1)(c1ccccc1)c1ccccc1)C(F)(F)C(F)(F)C(F)(F)C(F)(F)C(F)(F)C(F)(F)C(F)(F)F)c1ccccc1
inactive: SF-268 > 100 µM | MDA-MB-231 > 10 µM | U-251 > 100 µM | HT-29 > 100 µM | ACHN > 100 µM | HCT-116 > 100 µM | MCF7 > 100 µM | UACC-62 > 100 µM | HL-60 > 100 µM | OVCAR-4 > 100 µM | HOP-62 > 100 µM | BT-549 > 100 µM | CCRF-CEM > 100 µM | PC-3 > 100 µM | SW-620 > 100 µM | Malme-3M > 100 µM | NCI-H460 > 100 µM | COLO 205 > 100 µM

CCC(=O)NC(Nc1cccc(F)c1C)(C(F)(F)F)C(F)(F)F
inactive: EKVX > 100 µM | SF-268 > 100 µM | MDA-MB-231 > 100 µM | U-251 > 100 µM | HT-29 > 100 µM | ACHN > 100 µM | HCT-116 > 100 µM | MCF7 > 100 µM | UACC-62 > 100 µM | HL-60 > 100 µM | HOP-62 > 100 µM | BT-549 > 100 µM | CCRF-CEM > 100 µM | PC-3 > 100 µM | SW-620 > 100 µM | Malme-3M > 100 µM | NCI-H460 > 100 µM | COLO 205 > 100 µM

CSc1ccc(/C=C/C(=O)c2nc3ccccc3[nH]2)cc1
inactive: EKVX 17.8 µM | SF-268 26.9 µM | MDA-MB-231 10 µM | HT-29 15.7 µM | ACHN 18.9 µM | HCT-116 12.7 µM | MCF7 2.64 µM | UACC-62 14.2 µM | HL-60 12.1 µM | OVCAR-4 14.1 µM | HOP-62 24.3 µM | BT-549 14.8 µM | CCRF-CEM 3.49 µM | PC-3 12.3 µM | SW-620 9.29 µM | Malme-3M 44.7 µM | NCI-H460 18.4 µM | COLO 205 18.1 µM
